According to ChEMBL document CHEMBL1201862, “PubChem BioAssay data set” (2004):
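Assay format: 96-well plates, 48-hour exposure. Abbreviation: GI50, concentration required for 50% inhibition of growth.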 Active and inactive are the calls of the source. Cut-off read from the data, not from the text of the source: active = GI50 up to about 1.1 µM and inactive = higher.

Columns and labels:
Experiment in all cases: inhibition of tumour cell growth, NCI panel, 48 h
M14 = test system: M14
U-251 = test system: U-251
DMS-273 = test system: DMS-273
UO-31 = test system: UO-31
IGROV-1 = test system: IGROV-1
SF-295 = test system: SF-295
RXF 393 = test system: RXF 393
SW-620 = test system: SW-620
UACC-257 = test system: UACC-257
HCT-15 = test system: HCT-15
HT-29 = test system: HT-29
LXFL 529 = test system: LXFL 529
TK-10 = test system: TK-10
HL-60 = test system: HL-60
CCRF-CEM = test system: CCRF-CEM
NCI-H226 = test system: NCI-H226
SF-539 = test system: SF-539
SK-MEL-28 = test system: SK-MEL-28
K562 = test system: K562
KM12 = test system: KM12
OVCAR-8 = test system: OVCAR-8
SK-OV-3 = test system: SK-OV-3
DMS-114 = test system: DMS-114
A549 = test system: A549
EKVX = test system: EKVX
CAKI-1 = test system: CAKI-1
HOP-18 = test system: HOP-18
HCT-116 = test system: HCT-116
OVCAR-3 = test system: OVCAR-3
SK-MEL-5 = test system: SK-MEL-5
MOLT-4 = test system: MOLT-4
UACC-62 = test system: UACC-62
SNB-78 = test system: SNB-78
SN12C = test system: SN12C
HOP-92 = test system: HOP-92
HCC 2998 = test system: HCC 2998
786-0 = test system: 786-0
NCI-H522 = test system: NCI-H522
NCI-H23 = test system: NCI-H23
M19-MEL = test system: M19-MEL
NCI-H460 = test system: NCI-H460
COLO 205 = test system: COLO 205
DLD-1 = test system: DLD-1
LOX IMVI = test system: LOX IMVI
RXF 631 = test system: RXF 631
A498 = test system: A498
RPMI-8226 = test system: RPMI-8226
SNB-75 = test system: SNB-75
HOP-62 = test system: HOP-62
ACHN = test system: ACHN
Malme-3M = test system: Malme-3M
SNB-19 = test system: SNB-19
KM-20L2 = test system: KM-20L2
SK-MEL-2 = test system: SK-MEL-2
OVCAR-4 = test system: OVCAR-4
OVCAR-5 = test system: OVCAR-5
SF-268 = test system: SF-268

With COC12OCCN(C)C1=CC(=O)C1=NNC(C)C12 (stereo not drawn) the GI50 (M14) was > 100 µM (inactive), the GI50 (U-251) was > 100 µM (inactive) and the GI50 (DMS-273) was > 100 µM (inactive). The GI50 (UO-31) was > 100 µM (inactive), the GI50 (IGROV-1) was > 100 µM (inactive) and the GI50 (SF-295) was > 100 µM (inactive). The GI50 (RXF 393) was > 100 µM (inactive), the GI50 (SW-620) was > 100 µM (inactive) and the GI50 (UACC-257) was > 100 µM (inactive). The GI50 (HCT-15) was greater than 100 µM, the GI50 (HT-29) was > 100 µM (inactive) and the GI50 (LXFL 529) was > 100 µM (inactive). For the same molecule, the GI50 (TK-10) was > 100 µM (inactive), the GI50 (HL-60) was > 100 µM (inactive) and the GI50 (CCRF-CEM) was > 100 µM (inactive). For the same molecule, the GI50 (NCI-H226) was > 100 µM (inactive), the GI50 (SF-539) was > 100 µM (inactive) and the GI50 (SK-MEL-28) was > 100 µM (inactive). For the same molecule, the GI50 (K562) was > 100 µM (inactive), the GI50 (KM12) was > 100 µM (inactive) and the GI50 (OVCAR-8) was > 100 µM (inactive). The GI50 (SK-OV-3) was > 100 µM (inactive), the GI50 (DMS-114) was > 100 µM (inactive) and the GI50 (A549) was > 100 µM (inactive). For the same molecule, the GI50 (EKVX) was > 100 µM (inactive), the GI50 (CAKI-1) was > 100 µM (inactive) and the GI50 (HOP-18) was > 100 µM (inactive). The GI50 (HCT-116) was > 100 µM (inactive), the GI50 (OVCAR-3) was > 100 µM (inactive) and the GI50 (SK-MEL-5) was > 100 µM (inactive). The GI50 (MOLT-4) was > 100 µM (inactive), the GI50 (UACC-62) was > 100 µM (inactive) and the GI50 (SNB-78) was > 100 µM (inactive). The GI50 (SN12C) was > 100 µM (inactive), the GI50 (HOP-92) was > 100 µM (inactive) and the GI50 (HCC 2998) was > 100 µM (inactive). The GI50 (786-0) was > 100 µM (inactive), the GI50 (NCI-H522) was > 100 µM (inactive) and the GI50 (NCI-H23) was > 100 µM (inactive). For the same molecule, the GI50 (M19-MEL) was > 100 µM (inactive), the GI50 (NCI-H460) was > 100 µM (inactive) and the GI50 (COLO 205) was > 100 µM (inactive). The GI50 (DLD-1) was > 100 µM (inactive), the GI50 (LOX IMVI) was > 100 µM (inactive) and the GI50 (RXF 631) was > 100 µM (inactive). The GI50 (A498) was > 100 µM (inactive), the GI50 (RPMI-8226) was > 100 µM (inactive) and the GI50 (SNB-75) was > 100 µM (inactive).

In the case of O=C(CCCCCCCCC(=O)OCCCn1cc(C(=O)NC(=O)OCc2ccccc2)c(=O)[nH]c1=O)OCCCn1cc(C(=O)NC(=O)OCc2ccccc2)c(=O)[nH]c1=O, the GI50 (M14) is reported as > 100 µM (inactive), the GI50 (U-251) is reported as > 100 µM (inactive) and the GI50 (DMS-273) is reported as > 100 µM (inactive). For the same molecule, the GI50 (UO-31) was > 100 µM (inactive), the GI50 (IGROV-1) was > 100 µM (inactive) and the GI50 (SF-295) was > 100 µM (inactive). The GI50 (HOP-62) was > 100 µM (inactive), the GI50 (RXF 393) was > 100 µM (inactive) and the GI50 (SW-620) was > 100 µM (inactive). The GI50 (UACC-257) was > 100 µM (inactive), the GI50 (HCT-15) was greater than 100 µM and the GI50 (HT-29) was > 100 µM (inactive). For the same molecule, the GI50 (TK-10) was > 100 µM (inactive), the GI50 (HL-60) was > 100 µM (inactive) and the GI50 (CCRF-CEM) was > 100 µM (inactive). For the same molecule, the GI50 (ACHN) was > 100 µM (inactive), the GI50 (Malme-3M) was > 100 µM (inactive) and the GI50 (NCI-H226) was > 100 µM (inactive). The GI50 (SF-539) was > 100 µM (inactive), the GI50 (SK-MEL-28) was > 100 µM (inactive) and the GI50 (K562) was > 100 µM (inactive). The GI50 (SNB-19) was > 100 µM (inactive), the GI50 (KM12) was > 100 µM (inactive) and the GI50 (KM-20L2) was > 100 µM (inactive). The GI50 (OVCAR-8) was > 100 µM (inactive), the GI50 (SK-OV-3) was > 100 µM (inactive) and the GI50 (A549) was > 100 µM (inactive). The GI50 (EKVX) was > 100 µM (inactive), the GI50 (CAKI-1) was > 100 µM (inactive) and the GI50 (HOP-18) was > 100 µM (inactive). The GI50 (HCT-116) was > 100 µM (inactive), the GI50 (OVCAR-3) was > 100 µM (inactive) and the GI50 (SK-MEL-5) was > 100 µM (inactive). The GI50 (MOLT-4) was > 100 µM (inactive), the GI50 (UACC-62) was > 100 µM (inactive) and the GI50 (SK-MEL-2) was > 100 µM (inactive). The GI50 (SNB-78) was > 100 µM (inactive), the GI50 (SN12C) was > 100 µM (inactive) and the GI50 (HOP-92) was > 100 µM (inactive). For the same molecule, the GI50 (HCC 2998) was > 100 µM (inactive), the GI50 (786-0) was > 100 µM (inactive) and the GI50 (NCI-H522) was > 100 µM (inactive). For the same molecule, the GI50 (NCI-H23) was > 100 µM (inactive), the GI50 (M19-MEL) was > 100 µM (inactive) and the GI50 (NCI-H460) was > 100 µM (inactive). For the same molecule, the GI50 (COLO 205) was > 100 µM (inactive), the GI50 (DLD-1) was > 100 µM (inactive) and the GI50 (OVCAR-4) was > 100 µM (inactive). For the same molecule, the GI50 (LOX IMVI) was > 100 µM (inactive), the GI50 (RXF 631) was > 100 µM (inactive) and the GI50 (A498) was > 100 µM (inactive). The GI50 (OVCAR-5) was > 100 µM (inactive), the GI50 (RPMI-8226) was > 100 µM (inactive) and the GI50 (SF-268) was > 100 µM (inactive). For the same molecule, the GI50 (SNB-75) was 54.1 µM (inactive).
